Results from patent US12568967B2, “Compositions comprising pyridine carboxylate herbicides with synthetic auxin herbicides or auxin transport inhibitors” (priority 2018, dated 2026).
Read-outs that look alike come from different tables or passages of the source.

Key:
[1] = tested on: Capsella bursa-pastoris (shepherd's purse, CAPBP); test: Greenhouse postemergence trial CAPBP; type: in vivo
Experimental: (§1) Seeds of the desired test plant species were planted in a 90:10% v/v (volume/volume) mixture of PRO-MIX® BX (Premier Tech Horticulture, Quakertown, PA, USA) and PROFILE® GREENS GRADE™ (Profile Products LLC, Buffalo Grove, IL, USA) planting mixture, which typically has a pH of 5.2 to 6.2 and an organic matter content of at least 50 percent, in plastic pots with a surface area of 103.2 square centimeters (cm^2). […] The plants were grown for 7-36 days (d) in a greenhouse with an approximate 14-hour (h) photo-period which was maintained at about 23° C. during the day and 22° C. during the night. Nutrients and water were added on a regular basis and supplemental lighting was provided with overhead metal halide 1000-Watt lamps as necessary. The plants were employed for testing when they reached the second or third true leaf stage.
(§2) Emulsifiable concentrates of each of each pyridine carboxylate herbicide (Compound A or Compound B) were prepared at 100 grams acid equivalent per liter (g ae/L). The emulsifiable concentrates also included a safener, cloquintocet-mexyl, at 120 grams active ingredient per liter (g ai/L), unless otherwise noted below. An aliquot of each emulsifiable concentrate was placed in a 25 mL glass vial and diluted with an aqueous mixture of 1.25% (v/v) ACTIROB® B esterified rapeseed oil (Bayer Crop Science, Research Triangle Park, NC, USA) or MSO® Concentrate with LECI-TECH® methylated soybean oil (Loveland Products, Loveland, CO, USA) to obtain concentrated stock solutions at the highest application rate for each herbicide, based upon a 12 milliliter (mL) application volume at a rate of 187 liters per hectare (L/ha). The concentrated stock solutions were further diluted with an aqueous mixture of 1.25% v/v ACTIROB® B or MSO® Concentrate with LECI-TECH® to obtain stock solutions at reduced application rates for each herbicide. Spray solutions of the herbicide combinations (Compound A or Compound B plus synthetic auxin herbicide or auxin transport inhibitor) were prepared by adding weighed amounts or aliquots of the synthetic auxin herbicide or auxin transport inhibitor to the stock solutions of Compound A or Compound B to form 12-mL spray solutions in two-way combinations.
(§3) The spray solutions were applied to the plant material with an overhead Mandel track sprayer equipped with 8002E nozzles calibrated to deliver 187 L/ha over an application area of 0.503 square meters (m^2) at a spray height of 18 inches (43 centimeters (cm)) above the average plant canopy. Control plants were sprayed in the same manner with the solvent blank. All pyridine carboxylate herbicide (component a) application rates are given as “g ae/ha” and all synthetic auxin herbicide or auxin transport inhibitor (component b) application rates are given as “g ai/ha.”
(§4) The treated plants and control plants were placed in a greenhouse as described above and watered by sub-irrigation to prevent wash-off of the test compounds. After 20-22 d, the condition of the test plants as compared with that of the control plants was determined visually and scored on a scale of 0 to 100 percent where 0 corresponds to no injury and 100 corresponds to complete kill.

[2] = tested on: Salsola kali (Russian thistle, SASKR); test: Greenhouse postemergence trial SASKR; type: in vivo;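 also: greenhouse plants sprayed at second or third true leaf stage, injury rated by eye after 20-22 d against solvent-blank controls, 0 meaning no injury, 100 complete kill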
Experimental: (§5) The plants were grown for 7-36 days (d) in a greenhouse with an approximate 14-hour (h) photo-period which was maintained at about 23° C. during the day and 22° C. during the night. Nutrients and water were added on a regular basis and supplemental lighting was provided with overhead metal halide 1000-Watt lamps as necessary. The plants were employed for testing when they reached the second or third true leaf stage.
(§6) The emulsifiable concentrates also included a safener, cloquintocet-mexyl, at 120 grams active ingredient per liter (g ai/L), unless otherwise noted below.
(§7) Control plants were sprayed in the same manner with the solvent blank. All pyridine carboxylate herbicide (component a) application rates are given as “g ae/ha” and all synthetic auxin herbicide or auxin transport inhibitor (component b) application rates are given as “g ai/ha.”
as §4

[3] = tested on: Stellaria media (chickweed, STEME); test: Greenhouse postemergence trial STEME; type: in vivo; conditions: Stellaria media, post-emergence, read-out: % visual injury Obs
[4] = tested on: Viola tricolor (wild pansy, VIOTR); test: Greenhouse postemergence trial VIOTR;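 also: greenhouse plants sprayed at second to third true leaf stage, injury rated visually after 20-22 d against solvent-blank sprayed controls, 0 meaning no injury and 100 complete kill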
[5] = tested on: Kochia scoparia (kochia, KCHSC); test: Greenhouse postemergence trial KCHSC; type: in vivo
Experimental: as §1, §2, §3, §4

[6] = tested on: Cirsium arvense (Canadian thistle, CIRAR); test: Greenhouse postemergence trial CIRAR; type: in vivo
[7] = tested on: Polygonum convolvulus (wild buckwheat, POLCO); test: Greenhouse postemergence trial POLCO; type: in vivo
[8] = tested on: Papaver rhoeas (corn poppy), herbicide-resistant (PAPRH-R); test: Greenhouse postemergence trial PAPRH-R; type: in vivo; conditions: Papaver rhoeas, post-emergence, read-out: % visual injury Obs
[9] = tested on: Cyanus segetum (cornflower, CENCY); test: Greenhouse postemergence trial CENCY; type: in vivo; conditions: Centaurea cyanus, post-emergence, read-out: % visual injury Obs
Experimental: as §1, §2, §3, §4

[10] = tested on: Brassica napus (winter rape, BRSNW); test: Greenhouse postemergence trial BRSNW; type: in vivo; conditions: Brassica napus, post-emergence, read-out: % visual injury Obs
[11] = tested on: Triticum aestivum (spring wheat, TRZAS); type: in vivo; conditions: for % visual injury (Obs) / % visual injury Obs: TRZAS
Experimental: as §1, §2, §3, §4

[12] = tested on: Hordeum vulgare (winter barley, HORVW); test: Greenhouse postemergence crop phytotoxicity HORVW; type: in vivo; conditions: HORVW
Experimental: as §1, §2, §3, §4

[13] = tested on: Veronica hederifolia (ivyleaf speedwell, VERHE); test: Greenhouse postemergence trial VERHE; type: in vivo; conditions: Veronica hederifolia, post-emergence, read-out: % visual injury Obs
[14] = tested on: Triticum aestivum (winter wheat, TRZAW); test: Greenhouse postemergence crop phytotoxicity TRZAW; type: in vivo; conditions: TRZAW
[15] = tested on: Lamium purpureum (purple deadnettle, LAMPU); test: Greenhouse postemergence trial LAMPU
[16] = tested on: Veronica persica (bird's-eye speedwell, VERPE); test: Greenhouse postemergence trial VERPE; type: in vivo; conditions: Veronica persica, post-emergence, read-out: % visual injury Obs
[17] = tested on: Viola arvensis (field violet, VIOAR); test: Greenhouse postemergence trial VIOAR; type: in vivo; conditions: Viola arvensis, post-emergence, read-out: % visual injury Obs
Experimental: as §1, §2, §3, §4

[18] = tested on: Chenopodium album L. (common lambsquarters, CHEAL); test: Greenhouse postemergence trial CHEAL; type: in vivo;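 also: greenhouse plants sprayed at second to third true leaf stage, injury rated by eye after 20-22 d versus solvent-blank sprayed controls, 0 = no injury, 100 = complete kill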
[19] = tested on: Matricaria discoidea (pineapple weed, MATMT); test: Greenhouse postemergence trial MATMT; type: in vivo; conditions: Matricaria discoidea, post-emergence, read-out: % visual injury Obs
[20] = tested on: Anthemis arvensis (field chamomile, ANTAR); test: Greenhouse postemergence trial ANTAR; type: in vivo; conditions: Anthemis arvensis, post-emergence, read-out: % visual injury Obs
Experimental: as §1, §2, §3, §4

[21] = tested on: Papaver rhoeas (corn poppy, PAPRH); test: Greenhouse postemergence trial PAPRH; type: in vivo; conditions: Papaver rhoeas, post-emergence, read-out: % visual injury Obs
[22] = tested on: Matricaria chamomilla (wild chamomile, MATCH); test: Greenhouse postemergence trial MATCH; type: in vivo;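 also: greenhouse plants sprayed at second to third true leaf stage, injury rated by eye 20-22 d later versus solvent-blank controls on 0–100 scale, 0 no injury, 100 complete kill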
[23] = tested on: Sinapis arvensis (wild mustard, SINAR); test: Greenhouse postemergence trial SINAR; type: in vivo
[24] = tested on: Hordeum vulgare (spring barley, HORVS); type: in vivo; conditions: for % visual injury (Obs) / % visual injury Obs: HORVS
Experimental: as §1, §2, §3, §4

[25] = tested on: Amaranthus retroflexus (pigweed, AMARE); test: Greenhouse postemergence trial AMARE; type: in vivo;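 also: Greenhouse-grown plants sprayed at second to third true leaf stage, injury rated by eye after 20-22 d versus solvent-blank sprayed controls, 0 = no injury, 100 = complete kill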
[26] = tested on: Brassica napus (spring rape, BRSNN); test: Greenhouse postemergence trial BRSNN; type: in vivo; conditions: for % visual injury (Obs): BRSNN
Experimental: as §5, §6, §7, §4

[27] = tested on: Matricaria inodora (false chamomile, MATIN); test: Greenhouse postemergence trial MATIN; type: in vivo
[28] = Viola tricolor, post-emergence, read-out: % visual injury Obs
[29] = Lamium purpureum, post-emergence, read-out: % visual injury Obs

How did the pest or weed control at 560 g/ha ([1]; Capsella bursa-pastoris, post-emergence, read-out: % visual injury Obs) turn out when O=C(O)CCCOc1ccc(Cl)cc1Cl [2,4-DB] was run?
Its pest or weed control at 560 g/ha is 30%.

What about the pest or weed control ([2]; Salsola kali, post-emergence, SASKR, alone, read-out: % visual injury Obs) of the same compound?
Its pest or weed control is 50%.

What about the pest or weed control at 560 g/ha [3] of the same compound?
Its pest or weed control at 560 g/ha is 10%.

And the pest or weed control at 560 g/ha [4, 28]?
Its pest or weed control at 560 g/ha is 60%.

And the pest or weed control ([5]; Bassia scoparia, post-emergence, KCHSC, alone, read-out: % visual injury Obs)?
The pest or weed control was 30%.

And the “% visual injury (Obs)” value ([5]; KCHSC, alone 280 g/ha)?
The value was 3%.

And the “% visual injury (Obs)” value ([6]; CIRAR, alone 280 g/ha)?
Its value is 15%.

What about the pest or weed control ([6]; Cirsium arvense, post-emergence, CIRAR, alone, read-out: % visual injury Obs) of the same compound?
The pest or weed control was 30%.

And the pest or weed control at 560 g/ha ([7]; Fallopia convolvulus, post-emergence, read-out: % visual injury Obs)?
Its pest or weed control at 560 g/ha is 30%.

And the “% visual injury (Obs)” value ([7]; POLCO, alone 280 g/ha)?
Its value is 13%.

What about the pest or weed control at 560 g/ha [8] of the same compound?
Its pest or weed control at 560 g/ha is 30%.

What about the pest or weed control at 560 g/ha [9] of the same compound?
The pest or weed control at 560 g/ha was 30%.

And the plant injury at 560 g/ha [10]?
The plant injury at 560 g/ha was 85%.

What about the “% visual injury (Obs)” value ([11]; alone 280 g/ha) of the same compound?
The value was 0%.

And the “% visual injury Obs” value ([11]; alone, 560 g/ha)?
The value was 0%.

And the “% visual injury Obs” value ([12]; alone, 560 g/ha)?
The value was 0%.

And the pest or weed control at 560 g/ha [13]?
Its pest or weed control at 560 g/ha is 60%.

And the “% visual injury Obs” value ([14]; alone, 560 g/ha)?
The value was 0%.

What about the pest or weed control at 560 g/ha [15, 29] of the same compound?
The pest or weed control at 560 g/ha was 10%.

What about the pest or weed control at 560 g/ha [16] of the same compound?
Its pest or weed control at 560 g/ha is 60%.

What about the pest or weed control at 560 g/ha [17] of the same compound?
Its pest or weed control at 560 g/ha is 30%.

What about the “% visual injury (Obs)” value ([18]; CHEAL, alone 280 g/ha) of the same compound?
The value was 43%.

What about the pest or weed control at 560 g/ha [19] of the same compound?
Its pest or weed control at 560 g/ha is 5%.

What about the pest or weed control at 560 g/ha [20] of the same compound?
The pest or weed control at 560 g/ha was 10%.

And the pest or weed control at 560 g/ha [21]?
The pest or weed control at 560 g/ha was 100%.

And the “% visual injury (Obs)” value ([22]; MATCH, alone 280 g/ha)?
The value was 5%.

What about the pest or weed control ([22]; Matricaria chamomilla, post-emergence, MATCH, alone, read-out: % visual injury Obs) of the same compound?
Its pest or weed control is 10%.

And the pest or weed control ([23]; Mutarda arvensis, post-emergence, SINAR, alone, read-out: % visual injury Obs)?
The pest or weed control was 50%.

What about the “% visual injury (Obs)” value ([23]; SINAR, alone 280 g/ha) of the same compound?
Its value is 30%.

And the “% visual injury (Obs)” value ([24]; alone 280 g/ha)?
The value was 0%.

And the “% visual injury Obs” value ([24]; alone, 560 g/ha)?
Its value is 0%.

And the “% visual injury (Obs)” value ([25]; AMARE, alone 280 g/ha)?
Its value is 60%.

And the “% visual injury (Obs)” value ([26]; alone 280 g/ha)?
Its value is 70%.

What about the pest or weed control at 560 g/ha ([27]; Tripleurospermum inodorum, post-emergence, read-out: % visual injury Obs) of the same compound?
The pest or weed control at 560 g/ha was 10%.

What does the source list for COC(=O)C1(O)c2ccccc2-c2ccc(Cl)cc21 (stereo not shown) [Chlorflurenol-methyl]?
SASKR Obs (% visual injury) ([2]; chlorflurenol-methyl 140 g/ha): 0%; KCHSC Obs (% visual injury) ([5]; chlorflurenol-methyl 140 g/ha): 0%; CIRAR Obs (% visual injury) ([6]; chlorflurenol-methyl 140 g/ha): 0%; TRZAS Obs (% visual injury) ([11]; chlorflurenol-methyl 140 g/ha): 0%; CHEAL Obs (% visual injury) ([18]; chlorflurenol-methyl 140 g/ha): 0%; MATCH Obs (% visual injury) ([22]; chlorflurenol-methyl 140 g/ha): 0%; SINAR Obs (% visual injury) ([23]; chlorflurenol-methyl 140 g/ha): 18%; HORVS Obs (% visual injury) ([24]; chlorflurenol-methyl 140 g/ha): 0%; AMARE Obs (% visual injury) ([25]; chlorflurenol-methyl 140 g/ha): 0%; BRSNN Obs (% visual injury) ([26]; chlorflurenol-methyl 140 g/ha): 23%

Which results are given for Nc1c(Cl)c(Cl)nc(C(=O)O)c1Cl [Picloram]?
% visual injury (Obs) ([1]; CAPBP, alone 10 g/ha): 10%; pest or weed control at 20 g/ha ([1]; Capsella bursa-pastoris, post-emergence, CAPBP, Picloram 20 g/ha, read-out: % visual injury Obs): 0%; pest or weed control at 20 g/ha ([2]; Salsola kali, post-emergence, SASKR, Picloram 20 g/ha, read-out: % visual injury Obs): 30%; pest or weed control at 20 g/ha ([3]; STEME, Picloram 20 g/ha): 10%; % visual injury (Obs) ([4]; VIOTR, alone, 10 g/ha): 10%; pest or weed control at 20 g/ha [4, 28]: 10%; pest or weed control at 20 g/ha ([5]; Bassia scoparia, post-emergence, KCHSC, Picloram 20 g/ha, read-out: % visual injury Obs): 10%; % visual injury (Obs) ([5]; KCHSC, alone 10 g/ha): 10%; pest or weed control at 20 g/ha ([6]; Cirsium arvense, post-emergence, CIRAR, Picloram 20 g/ha, read-out: % visual injury Obs): 60%; pest or weed control at 20 g/ha ([7]; Fallopia convolvulus, post-emergence, POLCO, Picloram 20 g/ha, read-out: % visual injury Obs): 40%; pest or weed control at 20 g/ha ([8]; PAPRH-R, Picloram 20 g/ha): 30%; pest or weed control at 20 g/ha ([9]; CENCY, Picloram 20 g/ha): 60%; plant injury at 20 g/ha ([10]; BRSNW, Picloram 20 g/ha): 10%; % visual injury Obs ([11]; Picloram 20 g/ha): 0%; % visual injury (Obs) ([11]; alone 10 g/ha): 0%; % visual injury Obs ([12]; Picloram 20 g/ha): 0%; pest or weed control at 20 g/ha ([13]; VERHE, Picloram 20 g/ha): 10%; % visual injury Obs ([14]; Picloram 20 g/ha): 0%; % visual injury (Obs) ([15]; LAMPU, alone 10 g/ha): 10%; pest or weed control at 20 g/ha [15, 29]: 5%; pest or weed control at 20 g/ha ([16]; VERPE, Picloram 20 g/ha): 10%; pest or weed control at 20 g/ha ([17]; VIOAR, Picloram 20 g/ha): 10%; pest or weed control at 20 g/ha ([19]; MATMT, Picloram 20 g/ha): 10%; pest or weed control at 20 g/ha ([20]; ANTAR, Picloram 20 g/ha): 30%; pest or weed control at 20 g/ha ([21]; PAPRH, Picloram 20 g/ha): 20%; pest or weed control at 20 g/ha ([22]; Matricaria chamomilla, post-emergence, MATCH, Picloram 20 g/ha, read-out: % visual injury Obs): 40%; pest or weed control at 20 g/ha ([23]; Mutarda arvensis, post-emergence, SINAR, Picloram 20 g/ha, read-out: % visual injury Obs): 30%; % visual injury Obs ([24]; Picloram 20 g/ha): 0%; % visual injury (Obs) ([24]; alone 10 g/ha): 0%; % visual injury (Obs) ([26]; alone 10 g/ha): 8%; % visual injury (Obs) ([27]; MATIN, alone 10 g/ha): 10%; pest or weed control at 20 g/ha ([27]; Tripleurospermum inodorum, post-emergence, MATIN, Picloram 20 g/ha, read-out: % visual injury Obs): 30%
